According to the NIST ThermoML archive (doi:10.1021/je7000446):

Experiment: relative permittivity at various frequencies (dimensionless)
Details: Fluid (supercritical or subcritical phases), Frequency=0.06 MHz, Parallel plate capacitor

CC(F)(F)F [1,1,1-trifluoroethane]
Details | relative permittivity
302.8 K, 1600 kPa | 9.28
302.8 K, 4000 kPa | 9.44
302.8 K, 6200 kPa | 9.56
302.8 K, 8200 kPa | 9.67
302.8 K, 10200 kPa | 9.77
302.8 K, 12300 kPa | 9.86
302.8 K, 16200 kPa | 10.02
302.8 K, 18500 kPa | 10.1
302.8 K, 20100 kPa | 10.16
302.8 K, 22000 kPa | 10.24
302.8 K, 24200 kPa | 10.31
302.8 K, 26300 kPa | 10.38
302.8 K, 28300 kPa | 10.44
302.8 K, 30700 kPa | 10.51
313.2 K, 1700 kPa | 8.61
313.2 K, 2700 kPa | 8.69
313.2 K, 4200 kPa | 8.82
313.2 K, 6300 kPa | 8.96
313.2 K, 8000 kPa | 9.05
313.2 K, 8800 kPa | 9.12
313.2 K, 14200 kPa | 9.39
313.2 K, 16300 kPa | 9.49
313.2 K, 18400 kPa | 9.58
313.2 K, 20400 kPa | 9.67
313.2 K, 21800 kPa | 9.73
313.2 K, 24200 kPa | 9.81
313.2 K, 26100 kPa | 9.87
313.2 K, 28400 kPa | 9.9
313.2 K, 30300 kPa | 9.95
313.2 K, 31600 kPa | 9.98
322.8 K, 2400 kPa | 8.08
322.8 K, 4500 kPa | 8.27
322.8 K, 6500 kPa | 8.43
322.8 K, 8400 kPa | 8.56
322.8 K, 10300 kPa | 8.68
322.8 K, 12100 kPa | 8.79
322.8 K, 14300 kPa | 8.89
322.8 K, 16300 kPa | 8.98
322.8 K, 18300 kPa | 9.07
322.8 K, 20200 kPa | 9.16
322.8 K, 22300 kPa | 9.24
322.8 K, 24400 kPa | 9.32
322.8 K, 26200 kPa | 9.38
322.8 K, 27900 kPa | 9.43
322.8 K, 28800 kPa | 9.46
322.8 K, 31000 kPa | 9.49
333 K, 1500 kPa | 7.35
333 K, 2600 kPa | 7.45
333 K, 4400 kPa | 7.66
333 K, 6300 kPa | 7.84
333 K, 8400 kPa | 8.01
333 K, 10300 kPa | 8.14
333 K, 12400 kPa | 8.26
333 K, 14400 kPa | 8.38
333 K, 16300 kPa | 8.48
333 K, 18300 kPa | 8.58
333 K, 20100 kPa | 8.66
333 K, 21100 kPa | 8.7
333 K, 22400 kPa | 8.73
333 K, 24100 kPa | 8.8
333 K, 26000 kPa | 8.87
333 K, 27400 kPa | 8.93
333 K, 29300 kPa | 8.99
343.4 K, 2200 kPa | 6.66
343.4 K, 3000 kPa | 6.79
343.4 K, 4000 kPa | 6.95
343.4 K, 5000 kPa | 7.06
343.4 K, 6200 kPa | 7.2
343.4 K, 8100 kPa | 7.4
343.4 K, 9200 kPa | 7.47
343.4 K, 10400 kPa | 7.58
343.4 K, 12300 kPa | 7.71
343.4 K, 14200 kPa | 7.83
343.4 K, 16200 kPa | 7.94
343.4 K, 18200 kPa | 8.04
343.4 K, 20300 kPa | 8.14
343.4 K, 22200 kPa | 8.22
343.4 K, 24200 kPa | 8.31
343.4 K, 26000 kPa | 8.37
343.4 K, 28000 kPa | 8.45
343.4 K, 29500 kPa | 8.5
353.4 K, 2600 kPa | 6.05
353.4 K, 4600 kPa | 6.39
353.4 K, 6400 kPa | 6.65
353.4 K, 8100 kPa | 6.84
353.4 K, 10000 kPa | 6.99
353.4 K, 12200 kPa | 7.15
353.4 K, 14400 kPa | 7.29
353.4 K, 16400 kPa | 7.41
353.4 K, 18300 kPa | 7.52
353.4 K, 20200 kPa | 7.6
353.4 K, 22200 kPa | 7.7
353.4 K, 24400 kPa | 7.78
353.4 K, 26400 kPa | 7.86
353.4 K, 28600 kPa | 7.95
363.8 K, 3600 kPa | 5.46
363.8 K, 4300 kPa | 5.73
363.8 K, 6100 kPa | 6.09
363.8 K, 8200 kPa | 6.37
363.8 K, 10200 kPa | 6.57
363.8 K, 12200 kPa | 6.74
363.8 K, 14200 kPa | 6.88
363.8 K, 16200 kPa | 7.01
363.8 K, 18200 kPa | 7.12
363.8 K, 20300 kPa | 7.22
363.8 K, 22200 kPa | 7.31
363.8 K, 24300 kPa | 7.41
363.8 K, 26000 kPa | 7.48
363.8 K, 28200 kPa | 7.56
363.8 K, 30000 kPa | 7.63
363.8 K, 31200 kPa | 7.66
372.9 K, 4000 kPa | 4.66
372.9 K, 6300 kPa | 5.55
372.9 K, 8200 kPa | 5.86
372.9 K, 10100 kPa | 6.08
372.9 K, 12200 kPa | 6.27
372.9 K, 14200 kPa | 6.42
372.9 K, 16000 kPa | 6.53
372.9 K, 18000 kPa | 6.65
372.9 K, 20200 kPa | 6.75
372.9 K, 22200 kPa | 6.85
372.9 K, 24200 kPa | 6.94
372.9 K, 26200 kPa | 7.02
372.9 K, 28100 kPa | 7.09
372.9 K, 29800 kPa | 7.15
372.9 K, 30700 kPa | 7.18
383.1 K, 4800 kPa | 3.97
383.1 K, 5800 kPa | 4.7
383.1 K, 6800 kPa | 5.06
383.1 K, 8200 kPa | 5.35
383.1 K, 10400 kPa | 5.65
383.1 K, 12000 kPa | 5.8
383.1 K, 14200 kPa | 6.09
383.1 K, 16200 kPa | 6.24
383.1 K, 18400 kPa | 6.38
383.1 K, 20000 kPa | 6.48

COC(F)(F)C(F)(F)F [methyl pentafluoroethyl ether]
Details | relative permittivity
312.9 K, 1500 kPa | 6.94
312.9 K, 3200 kPa | 7
312.9 K, 6100 kPa | 7.08
312.9 K, 8300 kPa | 7.14
312.9 K, 10400 kPa | 7.2
312.9 K, 12500 kPa | 7.25
312.9 K, 14400 kPa | 7.29
312.9 K, 16500 kPa | 7.34
312.9 K, 18300 kPa | 7.37
312.9 K, 26200 kPa | 7.51
312.9 K, 27800 kPa | 7.53
318 K, 1500 kPa | 6.78
318 K, 3200 kPa | 6.85
318 K, 6300 kPa | 6.95
318 K, 8300 kPa | 7.01
318 K, 10400 kPa | 7.06
318 K, 12400 kPa | 7.11
318 K, 14100 kPa | 7.15
318 K, 16400 kPa | 7.19
318 K, 18300 kPa | 7.22
318 K, 20400 kPa | 7.27
318 K, 22200 kPa | 7.29
318 K, 23800 kPa | 7.31
323.4 K, 2000 kPa | 6.65
323.4 K, 3200 kPa | 6.69
323.4 K, 4400 kPa | 6.73
323.4 K, 6600 kPa | 6.79
323.4 K, 8300 kPa | 6.84
323.4 K, 10100 kPa | 6.89
323.4 K, 12200 kPa | 6.94
323.4 K, 14000 kPa | 7
323.4 K, 16000 kPa | 7.05
323.4 K, 18000 kPa | 7.09
323.4 K, 20000 kPa | 7.12
323.4 K, 22200 kPa | 7.16
323.4 K, 24400 kPa | 7.2
323.4 K, 26300 kPa | 7.24
323.4 K, 28400 kPa | 7.27
